In patent publication US20260249027A1, “METERED DOSE INHALERS AND HIGH-DOSE SUSPENSIONS” (Kindeva Drug Delivery L.P., priority 2023, published 2026):

Key:
Format in all cases: physicochemical
[1] = Through life dose consistency of sodium cromoglycate pMDI suspensions (USP <601>, apparatus A)
Protocol: (§1) In the following examples, dose consistency was determined by in vitro measurement of single actuation dose content at start, middle and end of pMDI unit life in line with U.S. Pharmacopeia (USP)<601>, using a flow rate of 28.3 L/min and apparatus A. Aerodynamic particle size distribution of the pMDI suspension aerosols was measured at start of unit life in line with U.S. Pharmacopeia (USP)<601> using a Next Generation impactor without pre-separator (apparatus 6) and a flow rate of 30 L/min.
(§2) A first set of suspensions included no ethanol. A second set of suspensions included 2% ethanol by weight.
In total, ten suspension pMDI formulations were prepared in triplicate with sufficient fill weight to provide 60 actuations. Each suspension was filled into Kindeva FEP coated canisters, crimped with a Kindeva 50-μL valve. Each pMDI unit was sonicated for at least 10 minutes to disperse the suspended drug and tested with a Kindeva actuator having an exit orifice diameter (EOD) of 0.4 mm.

[2] = Aerodynamic particle size measurement of sodium cromoglycate pMDI suspensions (Next Generation impactor)
Text: (§3) In general, aerosols with mass median aerodynamic diameters (MMAD) of at least 1 μm but less than 5 μm in size are suitable for effective deep lung deposition for therapeutic effect. Herein, fine particle fraction (FPF) is defined as the percentage of the ex-actuator delivered API having a MMAD of less than 5 μm when tested in vitro. Herein, “ex-actuator” delivered dose is used to describe the amount of API delivered past the actuator of a pMDI. Therefore, an aerosol with a high FPF is typically suitable for deep lung deposition.
as §1, §2
In total, ten suspension pMDI formulations were prepared in triplicate with sufficient fill weight to provide 60 actuations. Each suspension was filled into Kindeva FEP coated canisters, crimped with a Kindeva 50-μL valve. Each pMDI unit was sonicated for at least 10 minutes to disperse the suspended drug and tested with a Kindeva actuator having an exit orifice diameter (EOD) of 0.4 mm
(§4) The mass median aerodynamic diameter (MMAD) and fine particle fraction (FPF) of each pMDI unit were measured by Next Generation cascade impaction (N=3) for each pMDI suspension.

[3] = Aerodynamic particle size measurement of salbutamol sulfate pMDI suspensions (Next Generation impactor)
Text: as §3, §1
In total, six suspension pMDI formulations were prepared in triplicate with sufficient fill weight to provide 60 actuations. Each suspension was filled into Kindeva FEP coated canisters, crimped with a Kindeva 50-μL valve. Each pMDI unit was sonicated for at least 10 minutes to disperse the suspended drug and tested with a Kindeva actuator having an exit orifice diameter (EOD) of 0.4 mm.
as §4

[4] = nominal ex-valve 0.5 mg/act, HFA-152a
[5] = nominal ex-valve 0.5 mg/act, HFA-152a/2% EtOH (w/w)
[6] = nominal ex-valve 0.5 mg/act, HFO-1234ze(E)
[7] = nominal ex-valve 0.5 mg/act, HFO-1234ze(E)/2% EtOH (w/w)
[8] = nominal ex-valve 1.0 mg/act, HFA-152a
[9] = nominal ex-valve 1.0 mg/act, HFA-152a/2% EtOH (w/w)
[10] = nominal ex-valve 1.0 mg/act, HFO-1234ze(E)
[11] = nominal ex-valve 1.0 mg/act, HFO-1234ze(E)/2% EtOH (w/w)
[12] = nominal ex-valve 2.0 mg/act, HFA-152a
[13] = nominal ex-valve 2.0 mg/act, HFO-1234ze(E)

O=C(O)c1cc(=O)c2c(OCC(O)COc3cccc4oc(C(=O)O)cc(=O)c34)cccc2o1 [sodium cromoglycate]
effect of addition of ethanol on through unit life ex-actuator delivered dose consistency ([1]; 2% ethanol by weight, HFA-152a or HFO-1234ze(E)): did not always substantially improve
through unit life ex-actuator delivered dose consistency ([1]; HFA-152a or HFO-1234ze(E) with and without 2% ethanol by weight): relatively consistent
MoL mean delivered dose [1, 4]: 363.8 μg/act
SoL mean delivered dose [1, 4]: 611.8 μg/act
TL mean delivered dose [1, 4]: 427.8 μg/act
EoL mean delivered dose [1, 5]: 313.6 μg/act
MoL mean delivered dose [1, 5]: 331.6 μg/act
SoL mean delivered dose [1, 5]: 675.8 μg/act
TL mean delivered dose [1, 5]: 440.3 μg/act
EoL mean delivered dose [1, 6]: 158.7 μg/act
MoL mean delivered dose [1, 6]: 354.1 μg/act
SoL mean delivered dose [1, 6]: 419.4 μg/act
TL mean delivered dose [1, 6]: 310.7 μg/act
EoL mean delivered dose [1, 7]: 315.4 μg/act
MoL mean delivered dose [1, 7]: 332.8 μg/act
SoL mean delivered dose [1, 7]: 940.2 μg/act
TL mean delivered dose [1, 7]: 529.5 μg/act
EoL mean delivered dose [1, 8]: 618.4 μg/act
MoL mean delivered dose [1, 8]: 931.3 μg/act
SoL mean delivered dose [1, 8]: 950.3 μg/act
TL mean delivered dose [1, 8]: 833.3 μg/act
EoL mean delivered dose [1, 9]: 847.0 μg/act
MoL mean delivered dose [1, 9]: 906.3 μg/act
SoL mean delivered dose [1, 9]: 1027.9 μg/act
TL mean delivered dose [1, 9]: 927.0 μg/act
EoL mean delivered dose [1, 10]: 695.5 μg/act
MoL mean delivered dose [1, 10]: 784.8 μg/act
SoL mean delivered dose [1, 10]: 967.3 μg/act
TL mean delivered dose [1, 10]: 815.9 μg/act
EoL mean delivered dose [1, 11]: 735.1 μg/act
MoL mean delivered dose [1, 11]: 917.0 μg/act
SoL mean delivered dose [1, 11]: 876.4 μg/act
TL mean delivered dose [1, 11]: 842.9 μg/act
EoL mean delivered dose [1, 12]: 1694.4 μg/act
MoL mean delivered dose [1, 12]: 1590.1 μg/act
SoL mean delivered dose [1, 12]: 1782.4 μg/act
TL mean delivered dose [1, 12]: 1689.0 μg/act
EoL mean delivered dose [1, 13]: 119.8 μg/act
MoL mean delivered dose [1, 13]: 879.1 μg/act
SoL mean delivered dose [1, 13]: 2009.3 μg/act
TL mean delivered dose [1, 13]: 1255.0 μg/act
MMAD values of aerosols, suitability ([2]; HFA-152a or HFO-1234ze(E), with and without ethanol, in-vitro): in an appropriate respirable range
FPF and MMAD without ethanol compared with corresponding suspensions with 2% ethanol by weight ([2]; HFA-152a or HFO-1234ze(E), all nominal doses): consistently produced greater FPFs and smaller MMADs
Mean FPF [2, 4]: 33.0%
Mean MMAD [2, 4]: 3.59 μm
Mean FPF [2, 5]: 29.5%
Mean MMAD [2, 5]: 3.92 μm
Mean FPF [2, 6]: 41.3%
Mean MMAD [2, 6]: 3.41 μm
Mean FPF [2, 7]: 34.1%
Mean MMAD [2, 7]: 3.77 μm
Mean FPF [2, 8]: 28.2%
Mean MMAD [2, 8]: 3.85 μm
Mean FPF [2, 9]: 25.2%
Mean MMAD [2, 9]: 4.38 μm
Mean FPF [2, 10]: 34.7%
Mean MMAD [2, 10]: 3.72 μm
Mean FPF [2, 11]: 30.9%
Mean MMAD [2, 11]: 4.13 μm
Mean FPF [2, 12]: 24.7%
Mean MMAD [2, 12]: 4.39 μm
Mean FPF [2, 13]: 30.7%
Mean MMAD [2, 13]: 4.23 μm
FPF and MMAD in HFO-1234ze(E) compared with corresponding suspensions in HFA-152a ([2]; with or without ethanol): consistently produced greater FPFs and generally smaller MMADs

salbutamol sulfate
MMAD values of aerosols, suitability ([3]; HFA-152a or HFO-1234ze(E), in-vitro): in an appropriate respirable range
FPF and MMAD in HFO-1234ze(E) compared with corresponding suspensions in HFA-152a ([3]; no ethanol): consistently produced greater FPFs and smaller MMADs
Mean FPF [3, 4]: 45.6%
Mean MMAD [3, 4]: 2.98 μm
Mean FPF [3, 6]: 57.0%
Mean MMAD [3, 6]: 2.98 μm
Mean FPF [3, 8]: 40.8%
Mean MMAD [3, 8]: 3.30 μm
Mean FPF [3, 10]: 52.4%
Mean MMAD [3, 10]: 3.12 μm
Mean FPF [3, 12]: 30.3%
Mean MMAD [3, 12]: 3.92 μm
Mean FPF [3, 13]: 36.4%
Mean MMAD [3, 13]: 3.67 μm
